Laboratory results published in patent US8552002B2 (Novartis AG, priority 2004, dated 2013).

Assays:
Assay type in all cases: biochemical
Tek = target: T1, Tek (Homo sapiens, UniProt Q02763); test: Recombinant GST-Tek (Tie-2) tyrosine kinase assay (33P into poly(Glu,Tyr)); conditions: Examples 1 to 169
T1 construct: amino acids 773-1124 of the cytoplasmic kinase domain of human Tek, N-terminally fused to GST; made in house; host or cells: Sf9 insect cells (baculovirus)
Source text: (Tie-2/Tek): The baculovirus donor vector pFbacG01 was used to generate a recombinant baculovirus that expressed the amino acid region amino acids 773-1124 of the cytoplasmic kinase domain of human Tek, N-terminally fused to GST (Provided by Dr. Marmé, Institute of Molecular Medicine, Freiburg, Germany based on a Research Collaboration). Tek was recloned into the pFbacG01 transfer vector by EcoRI excision and ligation into EcoRI digested pFbacG01 (FBG-Tie2/Tek).
Production of virus: Transfer vectors containing the kinase domains were transfected into the DH10Bac cell line (GIBCO) and plated on selective agar plates. Colonies without insertion of the fusion sequence into the viral genome (carried by the bacteria) are blue. Single white colonies were picked and viral DNA (bacmid) isolated from the bacteria by standard plasmid purification procedures. Sf9 cells or Sf21 cells were then transfected in 25 cm^2 flasks with the viral DNA using Cellfectin reagent.
Determination of small scale protein expression in Sf9 cells: Virus containing media was collected from the transfected cell culture and used for infection to increase its titer. Virus containing media obtained after two rounds of infection was used for large-scale protein expression. For large-scale protein expression 100 cm^2 round tissue culture plates were seeded with 5×10^7 cells/plate and infected with 1 mL of virus-containing media (approx. 5 MOIs). After 3 days the cells were scraped off the plate and centrifuged at 500 rpm for 5 min. Cell pellets from 10-20, 100 cm^2 plates, were resuspended in 50 mL of ice-cold lysis buffer (25 mMTris-HCl, pH7.5, 2 mMEDTA, 1% NP-40, 1 mM DTT, 1 mMP MSF). The cells were stirred on ice for 15 min and then centrifuged at 5000 rpms for 20 min.
Purification of GST-tagged proteins: The centrifuged cell lysate was loaded onto a 2 mL glutathione-sepharose column and washed three times with 10 mL of 25 mM Tris-HCl, pH 7.5, 2 mM EDTA, 1 mM DTT, 200 mM NaCl. The GST-tagged proteins were then eluted by 10 applications (1 mL each) of 25 mM Tris-HCl, pH 7.5, 10 mM reduced-glutathione, 100 mM NaCl, 1 mM DTT, 10% Glycerol and stored at −70° C.
Measure of enzyme activity: Tyrosine protein kinase assays with either purified GST-Ret, GST-Tek or GST-FGFR-3-K650E were carried out in a final volume of 30 μL with final concentrations of the following components: Ret included 15 ng of GST-Ret, 20 mM Tris-HCl, pH 7.5, 1 mM MnCl2, 10 mM MgCl2, 1 mM DTT, 3 μg/mL poly(Glu,Tyr) 4:1, 1% DMSO and 2.0 μM ATP (γ-[^33P]-ATP 0.1 μCi). Tek included 150 ng of GST-Tek, 20 mM Tris-HCl, pH 7.5, 3 mM MnCl2, 3 mM MgCl2, 1 mM DTT, 0.01 mM Na3VO4, 250 μg/mL PEG 20'000, 10 μg/mL poly(Glu,Tyr) 4:1, 1% DMSO and 4.0 μM ATP (γ-[^33P]-ATP 0.1 μCi). FGFR-3-K650E included 10 ng of GST-FGFR-3-K650E, 20 mM Tris-HCl, pH 7.5, 3 mM MnCl2, 3 mM MgCl2, 1 mM DTT, […], 10 μg/mL poly(Glu,Tyr) 4:1, 1% DMSO and 4.0 μM ATP (γ-[^33P]-ATP 0.1 μCi).The activity was assayed in the presence or absence of inhibitors, by measuring the incorporation of ^33P from [γ^33P] ATP into poly(Glu,Tyr) 4:1. The assay was carried out in 96-well plates at ambient temperature for 30 min under conditions described below and terminated by the addition of 50 μL of 125 mM EDTA. Subsequently, 60 μL of the reaction mixture were transferred onto Immobilon-PVDF membrane (Millipore) previously soaked for 5 min with methanol, rinsed with water, then soaked for 5 min with 0.5% H3PO4 and mounted on vacuum manifold with disconnected vacuum source. After spotting all samples, vacuum was connected and each well rinsed with 200 μL 0.5% H3PO4. Membranes were removed and washed 4× on a shaker with 1.0% H3PO4, once with ethanol. Membranes were counted after drying at ambient temperature, mounting in Packard TopCount 96-well frame, and addition of 10 μL/well of Microscint™ (Packard). […]

KDR = target: T2, KDR (Homo sapiens, UniProt P35968); test: Inhibitory activity against KDR (VEGF-R2), in vitro data of Examples 170 and 207; conditions: 10 μM; Examples 1 to 169; read-out: KDR inhibition at 10 μM
T2 construct: expressed in transfected cells; host or cells: CHO cells
T2 sequence (P35968 20-1356): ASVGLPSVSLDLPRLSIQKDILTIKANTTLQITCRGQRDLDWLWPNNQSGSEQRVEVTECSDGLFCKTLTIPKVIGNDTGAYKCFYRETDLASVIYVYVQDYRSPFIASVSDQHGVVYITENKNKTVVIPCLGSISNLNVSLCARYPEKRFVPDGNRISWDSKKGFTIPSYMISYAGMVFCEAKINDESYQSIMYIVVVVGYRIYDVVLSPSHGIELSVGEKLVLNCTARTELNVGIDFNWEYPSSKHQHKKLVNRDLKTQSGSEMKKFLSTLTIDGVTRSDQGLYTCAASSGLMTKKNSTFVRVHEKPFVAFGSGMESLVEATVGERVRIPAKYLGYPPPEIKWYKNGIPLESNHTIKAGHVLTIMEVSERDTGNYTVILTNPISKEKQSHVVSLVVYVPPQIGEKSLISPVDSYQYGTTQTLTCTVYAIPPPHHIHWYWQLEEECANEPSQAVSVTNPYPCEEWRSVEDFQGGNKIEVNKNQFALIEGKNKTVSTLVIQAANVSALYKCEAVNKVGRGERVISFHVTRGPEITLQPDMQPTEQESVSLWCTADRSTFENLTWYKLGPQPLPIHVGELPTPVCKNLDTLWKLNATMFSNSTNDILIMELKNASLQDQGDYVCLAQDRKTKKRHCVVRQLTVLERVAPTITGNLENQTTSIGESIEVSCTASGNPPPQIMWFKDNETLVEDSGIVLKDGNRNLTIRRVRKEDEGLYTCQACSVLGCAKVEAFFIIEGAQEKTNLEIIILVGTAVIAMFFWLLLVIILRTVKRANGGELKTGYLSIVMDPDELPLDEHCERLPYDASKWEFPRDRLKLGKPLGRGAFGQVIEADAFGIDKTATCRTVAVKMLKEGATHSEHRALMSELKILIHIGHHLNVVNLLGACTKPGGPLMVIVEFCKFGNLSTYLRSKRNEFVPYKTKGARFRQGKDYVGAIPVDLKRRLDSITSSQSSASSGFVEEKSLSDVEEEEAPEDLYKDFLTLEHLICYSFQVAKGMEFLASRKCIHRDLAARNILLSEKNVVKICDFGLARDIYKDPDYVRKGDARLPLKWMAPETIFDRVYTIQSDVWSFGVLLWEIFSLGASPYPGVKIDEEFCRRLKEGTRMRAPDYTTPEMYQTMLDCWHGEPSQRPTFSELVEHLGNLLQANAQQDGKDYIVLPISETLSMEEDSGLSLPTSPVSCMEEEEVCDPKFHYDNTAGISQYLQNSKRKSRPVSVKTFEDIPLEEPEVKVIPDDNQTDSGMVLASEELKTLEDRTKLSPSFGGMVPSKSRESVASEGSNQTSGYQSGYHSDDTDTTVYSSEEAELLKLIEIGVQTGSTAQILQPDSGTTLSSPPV
Protocol: (Controls comprise medium without test compounds). After two hours of incubation at 37° C., recombinant VEGF is added; the final VEGF concentration is 20 ng/ml. After a further five minutes incubation at 37° C., the cells are washed twice with ice-cold PBS (phosphate-buffered saline) and immediately lysed in 100 μl lysis buffer per well. The lysates are then centrifuged to remove the cell nuclei, and the protein concentrations of the supernatants are determined using a commercial protein assay (BIORAD). The lysates can then either be immediately used or, if necessary, stored at −20° C. […] The plates are then washed and the remaining free protein-binding sites are saturated with 3% TopBlock® (Juro, Cat. # TB232010) in phosphate buffered saline with Tween 20® (polyoxyethylen(20)sorbitane monolaurate, ICI/Uniquema) (PBST). The cell lysates (20 μg protein per well) are then incubated in these plates overnight at 4° C. together with an antiphosphotyrosine antibody coupled with alkaline phosphatase (PY20:AP from Zymed). […] The luminescence is measured in a Packard Top Count Microplate Scintillation Counter.

FGFR3 (K650E) = target: T3, FGFR3 (K650E) (Homo sapiens, UniProt P22607, K650E); test: Recombinant GST-FGFR-3-K650E tyrosine kinase assay (33P into poly(Glu,Tyr)); conditions: 10 μM; Examples 1 to 169; read-out: FGFR3 (K650E) inhibition at 10 μM
T3 construct: amino acids 411-806 of the cytoplasmic domain of human FGFR-3, N-terminally fused to GST; made in house; host or cells: Sf9 insect cells (baculovirus)
T3 sequence (P22607 411-806 K650E): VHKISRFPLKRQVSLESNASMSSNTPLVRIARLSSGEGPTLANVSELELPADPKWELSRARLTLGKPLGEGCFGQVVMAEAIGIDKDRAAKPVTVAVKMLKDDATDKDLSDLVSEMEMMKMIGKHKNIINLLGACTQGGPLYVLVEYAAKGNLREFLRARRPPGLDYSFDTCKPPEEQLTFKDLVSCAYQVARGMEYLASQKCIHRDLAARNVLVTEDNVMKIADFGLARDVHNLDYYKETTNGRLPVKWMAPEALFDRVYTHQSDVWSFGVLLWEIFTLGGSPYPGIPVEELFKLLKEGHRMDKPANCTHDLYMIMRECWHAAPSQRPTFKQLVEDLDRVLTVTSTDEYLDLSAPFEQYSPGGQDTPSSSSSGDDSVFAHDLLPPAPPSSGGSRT

T1 sequence (Q02763 773-1124): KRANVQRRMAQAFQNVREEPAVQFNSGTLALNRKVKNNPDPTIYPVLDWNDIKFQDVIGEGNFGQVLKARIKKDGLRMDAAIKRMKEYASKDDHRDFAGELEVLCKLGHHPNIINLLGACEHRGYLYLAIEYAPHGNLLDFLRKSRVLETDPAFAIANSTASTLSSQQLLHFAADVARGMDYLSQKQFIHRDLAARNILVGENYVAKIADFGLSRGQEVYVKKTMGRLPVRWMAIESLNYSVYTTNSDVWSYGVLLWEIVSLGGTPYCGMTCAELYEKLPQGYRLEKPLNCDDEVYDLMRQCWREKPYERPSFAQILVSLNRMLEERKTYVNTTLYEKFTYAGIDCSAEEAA

| Structure (SMILES) | inhibition at 10 µM (Tek) [%] | inhibition at 10 µM (KDR) [%] | inhibition at 10 µM (FGFR3 (K650E)) [%] |
| --- | --- | --- | --- |
| O=C(Nc1cc(Nc2cccc(Cl)c2)ncn1)Nc1ccccc1F [Example 130, 1-[6-(3-Chloro-phenylamino)-pyrimidin-4-yl]-3-(2-fluoro-phenyl)-urea] | 12 to 100 | 67 to 100 | 27 to 100 |
| O=C(Nc1cc(Nc2cccc(Cl)c2)ncn1)Nc1ccccc1Cl [Example 128, 3-(2-Chloro-phenyl)-1-[6-(3-chloro-phenylamino)-pyrimidin-4-yl]-urea] | 12 to 100 | 67 to 100 | 27 to 100 |
| COc1ccc(Nc2cc(NC(=O)Nc3c(Cl)cccc3Cl)ncn2)cn1 [Example 112, 1-(2,6-Dichloro-phenyl)-3-[6-(6-methoxy-pyridin-3-ylamino)-pyrimidin-4-yl]-urea] | 12 to 100 | 67 to 100 | 27 to 100 |
| O=C(Nc1cc(Nc2ccc(N3CCOCC3)cc2)ncn1)Nc1c(Cl)cccc1Cl [Example 108, 1-(2,6-Dichloro-Phenyl)-3-[6-(4-morpholin-4-yl-phenylamino)-pyrimidin-4-yl]-urea] | 12 to 100 | 67 to 100 | 27 to 100 |
| CN(C(=O)Nc1c(Cl)cccc1Cl)c1cc(Nc2cccc(C(F)(F)F)c2)ncn1 [Example 113, 3-(2,6-Dichloro-phenyl)-1-methyl-1-[6-(3-trifluoromethyl-phenylamino)-pyrimidin-4-yl]-urea] | 12 to 100 | 67 to 100 | 27 to 100 |
| O=C(Nc1cc(Nc2ccc(N3CCOCC3)cc2)ncn1)Nc1c(F)cccc1F [Example 109, 1-(2,6-Difluoro-phenyl)-3-[6-(4-morpholin-4-yl-phenylamino)-pyrimidin-4-yl]-urea] | 12 to 100 | 67 to 100 | 27 to 100 |
| COc1cc(NC(=O)Nc2cc(Nc3cccc(Cl)c3)ncn2)cc(OC)c1OC [Example 136, 1-[6-(3-Chloro-phenylamino)-pyrimidin-4-yl]-3-(3,4,5-trimethoxy-phenyl)-urea] | 12 to 100 | 67 to 100 | 27 to 100 |
| CN1CCN(c2ccc(Nc3cc(NC(=O)Nc4cc(C(F)(F)F)cc(C(F)(F)F)c4)ncn3)cc2)CC1 [Example 20, 1-(3,5-Bis-trifluoromethyl-phenyl)-3-{6-[4-(4-methyl-piperazin-1-yl)-phenylamino]-pyrimidin-4-yl}-urea] | 12 to 100 | 67 to 100 | 27 to 100 |

The next lines start with the values.

| inhibition at 10 µM (Tek) [%] | inhibition at 10 µM (KDR) [%] | inhibition at 10 µM (FGFR3 (K650E)) [%] | Structure (SMILES) |
| --- | --- | --- | --- |
| 12 to 100 | 67 to 100 | 27 to 100 | CCN(C(=O)Nc1c(Cl)c(OC)cc(OC)c1Cl)c1cc(Nc2ccc(OC3CCN(C)CC3)cc2)ncn1 [Example 166, 3-(2,6-Dichloro-3,5-dimethoxy-phenyl)-1-ethyl-{6-[4-(1-methyl-piperidin-4-yloxy)-phenylamino]-pyrimidin-4-yl}-urea] |
| 12 to 100 | 67 to 100 | 27 to 100 | CCN(C(=O)Nc1c(Cl)c(OC)cc(OC)c1Cl)c1cc(Nc2ccc(OCCN3CCCC3)cc2)ncn1 [Example 156, 3-(2,6-Dichloro-3,5-dimethoxy-phenyl)-1-ethyl-1-{6-[4-(2-pyrrolidin-1-yl-ethoxy)-phenylamino]-pyrimidin-4-yl}-urea] |
| 12 to 100 | 67 to 100 | 27 to 100 | COc1cc(OC)c(Cl)c(NC(=O)N(C)c2cc(Nc3ccc(C(F)(F)F)nc3)ncn2)c1Cl [Example 154, 3-(2,6-Dichloro-3,5-dimethoxy-phenyl)-1-methyl-1-[6-(6-trifluoromethyl-pyridin-3-ylamino)-pyrimidin-4-yl]-urea] |
| 12 to 100 | 67 to 100 | 27 to 100 | CCN(CC)CCOc1ccc(Nc2cc(NC(=O)Nc3ccccc3Cl)ncn2)cc1 [Example 126, 1-(2-Chloro-phenyl)-3-{6-[4-(2-diethylamino-ethoxy)-phenylamino]-pyrimidin-4-yl}-urea] |
| 12 to 100 | 67 to 100 | 27 to 100 | COc1ccc(NC(=O)Nc2cc(Nc3ccc(N4CCN(C)CC4)cc3)ncn2)cc1Cl [Example 24, 1-(3-Chloro-4-methoxy-phenyl)-3-{6-[4-(4-methyl-piperazin-1-yl)-phenyl-amino]-pyrimidin-4-yl}-urea] |
| 12 to 100 | 67 to 100 | 27 to 100 | COc1cc(NC(=O)Nc2cc(Nc3ccc(N4CCN(C)CC4)cc3)ncn2)cc(OC)c1 [Example 18, 1-(3,5-Dimethoxy-phenyl)-3-{6-[4-(4-methyl-piperazin-1-yl)-phenyl-amino]-pyrimidin-4-yl}-urea] |
| 12 to 100 | 67 to 100 | 27 to 100 | CN(C(=O)Nc1c(Cl)cccc1Cl)c1cc(Nc2ccc(C(C)(C)O)cc2)ncn1 [Example 111, 3-(2,6-Dichloro-Phenyl)-1-{6-[4-(1-hydroxy-1-methyl-ethyl)-phenylamino]-pyrimidin-4-yl}-1-methyl-urea] |
| 12 to 100 | 67 to 100 | 27 to 100 | COc1cc(OC)c(Cl)c(NC(=O)N(C)c2cc(Nc3cccc(CN(C)CCN(C)C)c3)ncn2)c1Cl [Example 162, 3-(2,6-Dichloro-3,5-dimethoxy-phenyl)-1-[6-(3-{[(2-dimethylamino-ethyl)-methyl-amino]-methyl}-phenylamino)-pyrimidin-4-yl]-1-methyl-urea] |
| 12 to 100 | 67 to 100 | 27 to 100 | CCN1CCN(c2ccc(Nc3cc(N(C)C(=O)Nc4c(Cl)c(OC)cc(OC)c4Cl)ncn3)cc2)CC1 [Example 145, 3-(2,6-Dichloro-3,5-dimethoxy-phenyl)-1-{6-[4-(4-ethyl-piperazin-1-yl)-phenylamino]-pyrimidin-4-yl}-1-methyl-urea] |
